According to patent US20050107386A1, “Methods of treating diseases and disorders by targeting multiple kinases” (priority 2003, published 2005):

How the values were obtained:
Conditions in all cases: 3 μM; percent of control kinase activity
c-RAF(h) = c-RAF(h) kinase assay; type: biochemical, human
Procedure: (§1) Six compounds (presumptive single agents) were tested against a panel of 50 kinases. The results are presented in Table 2; numbers for each kinase indicate the percent of control kinase activity in the presence of a 3μM concentration of the indicated agent.
(§2) Agents that target two or more different kinases are useful in the methods of the invention as described elsewhere herein. Such compounds may be identified, and their effect on certain kinases may be identified, using the assays briefly described below in Examples 4-83. Each of these assays was carried out as described in Davies et al., Biochem. J., 351:95-105 (2000). All assays were carried out at 10 μM ATP unless otherwise noted.
(§3) In a final reaction volume of 25 μl, c-RAF (h) (5-10 mU) is incubated with 25 mM Tris pH 7.5, 0.02 mM EGTA, 0.66 mg/ml myelin basic protein, 10 mM MgAcetate and [γ-^33P-ATP] (specific activity approx. 500 cpm/pmol, concentration as required). The reaction is initiated by the addition of Mg^2+ [γ-^33P-ATP]. After incubation for 40 minutes at room temperature, the reaction is stopped by the addition of 5 μl of a 3% phosphoric acid solution. 10 μl of the reaction is then spotted onto a P30 filtermat and washed three times for 5 minutes in 75 mM phosphoric acid and once in methanol prior to drying and scintillation counting.

Lck(h) = Lck(h) (Homo sapiens, UniProt P06239); test: Lck(h) kinase assay; type: biochemical
Procedure: as §1, §2
as §3, with “μl, Lck(h)” for “μl, c-RAF (h)”, “with 50” for “with 25”, “7.5, 0.1” for “7.5, 0.02”, “EGTA, 0.1 mM NaVanadate, 250 μM […] (Cdc2 peptide; SEQ ID NO:7),” for “EGTA, 0.66 mg/ml myelin basic protein,”

PKD2(h) = target: T1, PKD2(h) (Homo sapiens, UniProt Q9BZL6); test: PKD2(h) kinase assay; type: biochemical
T1 sequence (Q9BZL6 1-878): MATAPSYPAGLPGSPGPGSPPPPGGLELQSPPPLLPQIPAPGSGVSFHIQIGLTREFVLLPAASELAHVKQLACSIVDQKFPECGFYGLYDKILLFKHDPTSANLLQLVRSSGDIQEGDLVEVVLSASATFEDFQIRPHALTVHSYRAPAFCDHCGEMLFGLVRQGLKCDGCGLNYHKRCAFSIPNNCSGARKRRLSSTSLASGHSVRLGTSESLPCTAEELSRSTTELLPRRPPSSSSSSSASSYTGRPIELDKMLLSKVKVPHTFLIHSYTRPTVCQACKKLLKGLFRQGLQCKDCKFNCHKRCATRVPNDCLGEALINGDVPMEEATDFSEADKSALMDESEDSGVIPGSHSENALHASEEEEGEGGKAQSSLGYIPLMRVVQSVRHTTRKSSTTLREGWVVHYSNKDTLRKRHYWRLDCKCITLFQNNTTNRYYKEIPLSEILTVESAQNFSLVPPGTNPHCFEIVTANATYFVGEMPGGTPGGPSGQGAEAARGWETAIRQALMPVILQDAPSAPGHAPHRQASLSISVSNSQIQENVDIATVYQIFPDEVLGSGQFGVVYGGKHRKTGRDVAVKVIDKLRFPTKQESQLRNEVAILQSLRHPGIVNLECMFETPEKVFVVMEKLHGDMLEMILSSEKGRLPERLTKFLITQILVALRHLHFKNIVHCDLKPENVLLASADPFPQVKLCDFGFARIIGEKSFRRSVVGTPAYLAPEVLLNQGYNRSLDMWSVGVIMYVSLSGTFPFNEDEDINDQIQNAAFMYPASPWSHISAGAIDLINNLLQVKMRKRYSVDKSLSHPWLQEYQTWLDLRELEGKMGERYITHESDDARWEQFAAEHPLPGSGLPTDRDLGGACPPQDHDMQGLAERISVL
Procedure: as §1, §2

PKCε(h) = target: T2, PKCε(h) (Homo sapiens, UniProt Q02156); test: PKCε(h) kinase assay; type: biochemical
T2 sequence (Q02156 1-737): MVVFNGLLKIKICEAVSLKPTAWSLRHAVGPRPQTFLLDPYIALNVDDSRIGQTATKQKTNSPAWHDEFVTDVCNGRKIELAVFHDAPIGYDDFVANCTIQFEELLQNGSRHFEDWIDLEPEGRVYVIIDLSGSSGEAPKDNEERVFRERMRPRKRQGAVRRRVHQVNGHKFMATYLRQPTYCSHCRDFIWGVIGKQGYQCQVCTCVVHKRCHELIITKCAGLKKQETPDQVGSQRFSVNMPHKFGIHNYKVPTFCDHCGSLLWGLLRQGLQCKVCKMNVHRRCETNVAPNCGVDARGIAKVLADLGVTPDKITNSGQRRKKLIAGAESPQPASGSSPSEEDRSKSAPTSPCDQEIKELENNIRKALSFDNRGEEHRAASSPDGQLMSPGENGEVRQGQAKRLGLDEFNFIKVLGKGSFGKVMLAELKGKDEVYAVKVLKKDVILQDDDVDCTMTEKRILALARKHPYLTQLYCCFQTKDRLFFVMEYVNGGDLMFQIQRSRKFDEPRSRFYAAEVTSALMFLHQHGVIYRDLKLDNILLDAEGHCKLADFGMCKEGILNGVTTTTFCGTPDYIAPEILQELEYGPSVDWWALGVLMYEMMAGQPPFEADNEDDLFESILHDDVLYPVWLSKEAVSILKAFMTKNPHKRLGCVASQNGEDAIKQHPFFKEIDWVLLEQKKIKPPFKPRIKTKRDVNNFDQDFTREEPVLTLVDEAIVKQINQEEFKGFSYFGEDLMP
Procedure: as §1, §2
as §3, with “μl, PKCε(h)” for “μl, c-RAF (h)”, “with 20” for “with 25”, “mM Hepes” for “mM Tris”, “pH 7.4, 0.03% Triton X-100, 0.1” for “pH 7.5, 0.02 mM EGTA, 0.66”, “mg/ml phosphatidylserine, 10 μg/ml diacylglycerol, 50 μM […] (SEQ ID NO: 18),” for “mg/ml myelin basic protein,”, “[γ-^33P-ATP] (Specific” for “[γ-^33P-ATP] (specific”

Lck(h), sequence (P06239 whole entry): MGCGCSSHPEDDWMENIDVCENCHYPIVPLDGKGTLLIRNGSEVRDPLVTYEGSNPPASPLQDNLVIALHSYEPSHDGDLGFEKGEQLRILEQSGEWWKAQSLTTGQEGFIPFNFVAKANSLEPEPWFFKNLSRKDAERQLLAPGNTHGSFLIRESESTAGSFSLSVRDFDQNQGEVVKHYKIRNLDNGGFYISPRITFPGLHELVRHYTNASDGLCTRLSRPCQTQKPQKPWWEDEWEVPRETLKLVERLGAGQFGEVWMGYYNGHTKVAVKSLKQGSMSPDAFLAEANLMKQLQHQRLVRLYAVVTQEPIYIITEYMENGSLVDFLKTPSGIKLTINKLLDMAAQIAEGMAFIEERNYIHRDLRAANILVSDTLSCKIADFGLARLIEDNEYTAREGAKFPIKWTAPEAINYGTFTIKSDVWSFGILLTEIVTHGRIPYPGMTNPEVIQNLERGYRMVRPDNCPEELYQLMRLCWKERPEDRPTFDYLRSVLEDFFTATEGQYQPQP

Row | SMILES | Inhibitory activity (% of control), c-RAF(h) (c-RAF(h)) | Inhibitory activity (% of control), Lck(h) (Lck(h)) | Inhibitory activity (% of control), PKD2(h) (PKD2(h)) | Inhibitory activity (% of control), PKCε(h) (PKCε(h))
1 | CCN1CCC[C@H]1COc1ccc2cc(-c3n[nH]c4ccc(-c5nc(CC(C)(C)C)n[nH]5)cc34)ccc2c1 [CC005, 2-[((2s)-1-ethylpyrrolidin-2-yl)methoxy]-6-{5-[3-(2,2-Dimethylpropyl)(1H-1,2,4,-triazol-5-yl)](1H-indazol-3-yl)}naphthalene] | 100 % of control | 6 % of control | 0 % of control | 84 % of control
2 | COc1ccc2cc(-c3n[nH]c4ccc(-c5n[nH]c(CN6CCOCC6)n5)cc34)ccc2c1 [CC001, 3-(6-Methoxynaphthalen-2-yl)-5-(5-Morpholin-4-Ylmethyl-1H-[1,2,4]Triazol-3-yl)-1H-Indazole] | 99 % of control | 27 % of control | 14 % of control | 82 % of control
3 | CC(C)(C)Cc1nc(-c2ccc3[nH]nc(-c4ccc5cc(OCc6ccccn6)ccc5c4)c3c2)n[nH]1 [CC004, 5-[5-(2,2-Dimethyl-propyl)-1H-[1,2,4]triazol-3-yl]-3-[6-(pyridine-2-ylmethoxy)-naphthalen-2-yl]-1H-indazole] | 85 % of control | 57 % of control | 26 % of control | 105 % of control
4 | O=C(NC1CCCC1)c1cccc(-c2n[nH]c3ccc(-c4nc[nH]n4)cc23)c1 [CC007, 3-(5-(1H-1,2,4-triazol-3-yl)(1H-indazol-3-yl))phenyl-N-cyclopentylcarboxamide, reference compound] | 92 % of control | 56 % of control | – | 79 % of control
5 | CC(C)Cc1nc(-c2ccc3[nH]nc(-c4ccc5cc(OCCN6CCCC6)ccc5c4)c3c2)n[nH]1 [CC002, 5-(5-Isobutyl-1H-[1,2,4]Triazol-3-yl)-3-[6-(2-Pyrrolidin-1-yl-Ethoxy)-Naphthalen-2-yl]-1H-Indazole] | 96 % of control | 5 % of control | – | 58 % of control
6 | Fc1ccc(-c2n[nH]c3ccc(-c4n[nH]c(C5CCCC5)n4)cc23)cc1 [CC006, 5-(5-Cyclopentyl-1H-[1,2,4]triazol-3-yl)-3-(4-fluoro-phenyl)-1H-indazole, reference compound] | 99 % of control | 43 % of control | – | 82 % of control
